Source: US20080312309A1, “CONTROLLED RELEASE ORAL FORMULATIONS OF ION CHANNEL MODULATING COMPOUNDS AND RELATED METHODS FOR PREVENTING ARRHYTHMIA” (priority 2007, published 2008)
Marks after values point to notes of the source that are not given here.

Assay: Disposition and mass balance of 14C-vernakalant hydrochloride after single IV and oral doses in CYP2D6 EMs and PMs
Format: in vivo, human
Details: for AUC0-∞ / Cmax / t1/2 / Tmax: plasma, single 240-mg dose
Text: This phase 1 study used an open-label, single-sequence, crossover design. […] The specific activity of the administered dose was 0.329 μCi/mg, yielding a total radioactive dose of 78.96 μCi. Participants remained confined to the center for 7 days after drug administration to ensure collection of urine and fecal samples for recovery of radioactivity. After an additional 2-week follow-up as outpatients, the cohort returned to the center 3 weeks after each dose (i.e., days 21 and 42) for end-of-study assessments.
Additional samples were obtained 5 minutes into the IV infusion and at its end.
Urine and fecal specimens were also collected at the end-of-study assessment. Saliva for ^14C analysis was obtained before dosing, 0.25, 0.5, 2, and 8 hours afterward, and on occurrence of any treatment-related adverse event related to dysgeusia. Vomitus for ^14C analysis was collected at any time over the 7 days after oral administration when vomiting occurred.
Adverse events were evaluated daily, classified by intensity and association with treatment, and coded according to the MedDRA dictionary version 6.1. Vital signs, physical examination, 12-lead electrocardiograph (ECG), and laboratory tests including clinical chemistry, hematology, and urinalysis were evaluated at screening, 7 days after dosing, and at the end-of-study assessment. […] In addition, vital signs and 12-lead ECG were obtained 15 minutes before dosing; the vital signs assessment was repeated 15, 30, 60, and 90 minutes after dosing and then daily for 7 days.
Plasma samples first underwent solid-phase extraction on SPE cartridges containing a 30-mg MCX phase (Waters, Milford, Mass.); urine samples were analyzed directly. For the determination of glucuronide and sulphate conjugates, plasma and urine samples underwent an enzymatic deconjugation with a solution of β-glucuronidase (5000 units/mL in 0.1 M sodium acetate buffer pH 5.0) and were incubated for 30 hours (plasma) or 20 hours (urine) at 37° C. Subsequently, the urine samples were injected directly on to the column and the plasma samples were further treated with SPE as described above. […] The other part of the LC column effluent was directed to model API 3000 MS (MDX Sciex, Concord, Canada) with ionspray detection for structural confirmation and identification.
Pharmacokinetic values were analyzed using noncompartmental analysis by means of WinNonlin version 5.0 (Pharsight Corp, Mountain View, Calif.). […] Oral bioavailability (F) was determined from the ratio of AUC0-∞ after oral dosing to AUC0-∞ after IV dosing, and was used to calculate the oral clearance (CL/F), Vdz after oral dosing (Vdz/F), and Vss after oral dosing (Vss/F).
The amount of these analytes excreted in urine was calculated according to time period and cumulatively over the 7 days. Total ^14C in urine and feces (and vomitus, if applicable) was also determined by time and cumulatively over the study for the mass-balance estimation.
Concentrations below the lower limit of quantitation were set to 0. […] Safety parameters were summarized descriptively for the entire cohort.

[1] = IV infusion of 14C-vernakalant, EMs (n = 5)
[2] = IV infusion of 14C-vernakalant, PMs (n = 2)
[3] = oral administration of 14C-vernakalant, EMs (n = 5)
[4] = oral administration of 14C-vernakalant, PMs (n = 2)
[5] = oral administration, EMs (n = 5)
[6] = oral administration, PMs (n = 2)
[7] = IV infusion, EMs (n = 5), listed as Compound 2G

| Structure (SMILES) | Cumulative Amount Excreted in Urine During the 7 Days After Administration [1] | Cumulative Amount Excreted in Urine During the 7 Days After Administration [2] | Cumulative Amount Excreted in Urine During the 7 Days After Administration [3] | Cumulative Amount Excreted in Urine During the 7 Days After Administration [4] | AUC0-∞ (IV infusion, EMs (n = 5)) | Cmax (IV infusion, EMs (n = 5)) | t1/2 (IV infusion, EMs (n = 5)) | Cmax (IV infusion, PMs (n = 2)) | AUC0-∞ [5] | Cmax [5] | t1/2 [5] | Cmax [6] | Tmax (IV infusion, EMs (n = 5)) | Tmax (IV infusion, PMs (n = 2)) | Tmax [5] | Tmax [6] | AUC0-∞ (IV infusion, PMs (n = 2)) | t1/2 (IV infusion, PMs (n = 2)) | AUC0-∞ [6] | t1/2 [6] | further results |
| --- | --- | --- | --- | --- | --- | --- | --- | --- | --- | --- | --- | --- | --- | --- | --- | --- | --- | --- | --- | --- | --- |
| COc1cc(CCO[C@@H]2CCCC[C@H]2N2CC[C@@H](O)C2)ccc1O [Compound 2] | 3.11 ± 0.85 mg | 0.48 ± 0.02 mg | 3.88 ± 1.14 mg | 0.62 ± 0.19 mg | 202.5 ± 66.6 ng·h/mL | 68.6 ± 18.0 ng/mL | 2.28 ± 0.29 h | 3.31 ± 4.67 ng/mL | 225.2 ± 76.8 ng·h/mL | 63.2 ± 21.9 ng/mL | 2.19 ± 0.29 h | 6.25 ± 8.84 ng/mL | – | – | – | – | – | – | – | – | – |
| COc1ccc(CCO[C@@H]2CCCC[C@H]2N2CC[C@@H](O)C2)cc1O [Compound 3] | 0.04 ± 0.02 mg | 0.16 ± 0.12 mg | 0.05 ± 0.03 mg | 0.12 ± 0.05 mg | – | 2.85 ± 3.94 ng/mL | – | 3.72 ± 5.26 ng/mL | – | 1.41 ± 3.16 ng/mL | – | 9.08 ± 2.16 ng/mL | 0.34 ± 0.12 h | 0.42^† h | 0.77^† h | 1.25 ± 1.06 h | – | – | – | – | detectability in plasma (after vernakalant hydrochloride dosing): not detectable in plasma at most time points |
| COc1cc(CCO[C@@H]2CCCC[C@H]2N2CC[C@@H](O)C2)ccc1OC1OC(C(=O)O)C(O)C(O)C1O (stereo partly drawn) [Compound 2 glucuronide] | 120.01 ± 19.03 mg | 11.36 ± 5.52 mg | 121.76 ± 44.38 mg | 12.03 ± 0.51 mg | 20,711 ± 2708 ng · h/mL | 3489 ± 371.4 ng/mL | 3.29 ± 0.21 h | 180.5 ± 48.8 ng/mL | 21,182 ± 3137 ng · h/mL | 3824 ± 349.3 ng/mL | 3.2 h | 230.5 ± 4.99 ng/mL | 1.44 ± 0.69 h | 2.17 ± 0.0 h | 2.4 h | 2.00 ± 0.0 h | 1933 ± 360.0 ng·h/mL | 5.59 ± 0.73 h | 2025 ± 65.9 ng·h/mL | 5.01 ± 0.49 h | mean AUC0-∞, times higher in EMs than in PMs (plasma metabolite): 10 times; Tmax [7]: 1.4 h; t1/2 [7]: 3.3 h |
| COc1ccc(CCO[C@@H]2CCCC[C@H]2N2CC[C@@H](O[C@@H]3O[C@H](C(=O)O)[C@@H](O)[C@H](O)[C@H]3O)C2)cc1OC [Vernakalant glucuronide] | 8.91 ± 2.86 mg | 44.22 ± 15.10 mg | 11.31 ± 6.48 mg | 50.20 ± 14.99 mg | 1791 ± 764.1 ng·h/mL | 455.6 ± 118.9 ng/mL | 2.76 ± 0.65 h | 942.0 ± 213.5 ng/mL | 2076 ± 809.3 ng·h/mL | 496.0 ± 158.5 ng/mL | 2.57 ± 0.41 h | 1078 ± 297.7 ng/mL | 0.48 ± 0.13 h | 1.67 ± 0.71 h | 1.80 ± 0.45 h | 1.38 ± 0.88 h | 8074 ± 118.6 ng·h/mL | 6.58 ± 2.59 h | 7759 ± 1252 ng·h/mL | 4.32 ± 0.27 h | AUC0-∞, times higher in PMs than EMs (plasma metabolite): approximately 4 times |
